We go through 4 molecules from article PMC9134315, “Systemic Administration of a Brain Permeable Cdk5 Inhibitor Alters Neurobehavior” (Frontiers in Pharmacology, 2022).

Data set [1] deals with T1, Cdk5 (Mus musculus, UniProt P49615).
T1 construct: from tissue; host or cells: striatum of wild-type C57BL/6 mice (acute slices, or lysates after I.V. dosing)
Nature of the data set: Ex vivo acute striatal brain slice pharmacology, immunoblot of phospho-Thr75 DARPP-32 and phospho-Ser1116 NR2B. The data set is classed as cell-based. Particulars: acute striatal slices, 1 h treatment, 0-10 µM; read-out: IC50, Cdk5-dependent phosphorylation of DARPP-32 and NR2B. The method, then:
Brain slice pharmacology was performed as described ([Nishi et al., 2000]). Briefly, the mice were decapitated, and the brains were rapidly dissected and submerged in ice-cold normal Kreb’s solution (124 mM NaCl, 4 mM KCl, 26 mM NaHCO3, 1.25 mM KH2PO4, 1.5 mM MgSO4, 10 mM D-glucose, and 1.5 mM CaCl2). The brains were subsequently sectioned into normal Kreb’s solution at 350 µ thickness. The brain slices were transferred to a 30°C solution of normal Kreb’s containing 10 µM deaminase for a 1-h recovery period. The sections were then incubated in normal Kreb’s solution with and without the indicated compounds across the dose and time ranges indicated. The sections were rapidly snap-frozen in dry ice to terminate treatment regimes.
(§1) Immunoblotting was performed as previously described ([Umfress et al., 2021]). Mouse brains were rapidly dissected in an ice-cold solution of 50 mM NaF/PBS. The regions of interest were further dissected out and rapidly snap-frozen in dry ice. The frozen tissue was homogenized in boiling lysis buffer (1% SDS, 50 mM NaF) and sonicated with several three to four pulses at 40 dB. The samples were subsequently denatured at 90°C for 5 min. Protein concentration was determined by the BCA assay, and homogenates were diluted in 4x sample buffer, separated by SDS-PAGE, and transferred to 0.45-µm nitrocellulose membranes, blocked with 5% milk solution (1 h), and probed with primary antibodies (overnight). The following antibodies were used in the study: phospho-Ser549 synapsin I (Phosphosolutions), total synapsin I (Phosphosolutions), actin (Invitrogen), phospho-Ser1116 (in-house) ([Plattner et al., 2014]), and total NR2B (Phosphosolutions), phospho-Thr75, and total DARPP-32 (Cell Signaling Technology). Visualization was performed using the Licor CLX membrane scanner and Licor secondary antibodies.
In order to assess the functional inhibition of Cdk5 in intact brain tissue by the four compounds summarized in Figure 1, acutely prepared striatal slices were treated in a dose-dependent manner (0, 0.25, 0.5, 1, 5, and 10 µM) with each inhibitor for 1 h, and Cdk5 activity was assessed via immunoblotting the phosphorylation of established Cdk5 sites, phospho-Thr75 DARPP-32 and phospho-Ser1116 NR2B ([Bibb et al., 1999]; [Plattner et al., 2014]).
(In western blotting, separated proteins are transferred to a membrane and probed.)

The target in data set [2] is T1, Cdk5. As to the kind of experiment: In vivo Cdk5 inhibition after I.V. injection, immunoblot of striatal phospho-Ser549 synapsin I. Particulars: 50 mg/kg I.V., striatal lysates, various time points, data not shown. The method, then: The wild-type group housed male C57BL/6 mice 10–12 weeks of age were used for all in vivo, ex vivo, and behavioral studies. This age range was selected to be consistent with previous studies of conditional Cdk5 knockout mice ([Plattner et al., 2015]). 25–106 was administered in a 20-fold dose range intravenously (I.V.) at 10, 50, 100, and 200 mg/kg for pharmacokinetic studies. This delivery mode was used as I.V. injections to avoid first-pass drug metabolism observed using other injection methods ([Pond and Tozer, 1984]). […] All animal experiments were performed under approved protocols by the University of Alabama at Birmingham (UAB) Institutional Animal Care and Use Committees and in accordance with the guidelines of the Animal Welfare Act and the Guide for the Care and Use of Laboratory Animals.
as §1
Each of the four compounds tested in brain slices was further screened for their ability to penetrate the blood–brain barrier (BBB) and inhibit Cdk5-dependent activity in vivo. For these studies, cohorts of mice were treated with each compound via I.V. injection (50 mg/kg), and brain striatal lysates from various time points were subjected to quantitative immunoblot analysis for phosho-Ser549 Synapsin I levels. Three compounds, 20–107, 20–132, and 20–143, had no effect on Cdk5 activity compared to that of vehicle alone (data not shown). […] Moreover, this effect persisted even 24 h after dosing.

The conditions of data set [3]: ref Vita et al., 2005; cited from earlier work.

One may read the IC50 as the concentration that gives 50% inhibition.

T1 sequence (P49615 whole entry): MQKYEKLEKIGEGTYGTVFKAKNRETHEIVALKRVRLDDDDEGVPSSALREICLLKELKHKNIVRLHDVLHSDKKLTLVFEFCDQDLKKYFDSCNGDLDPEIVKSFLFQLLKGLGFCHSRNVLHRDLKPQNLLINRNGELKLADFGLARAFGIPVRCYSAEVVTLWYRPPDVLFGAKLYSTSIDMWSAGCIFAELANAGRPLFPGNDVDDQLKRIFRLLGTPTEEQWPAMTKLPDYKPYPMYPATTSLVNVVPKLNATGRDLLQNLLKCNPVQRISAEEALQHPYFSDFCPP
T1 sequence (P61809 2-307 partner limits assumed): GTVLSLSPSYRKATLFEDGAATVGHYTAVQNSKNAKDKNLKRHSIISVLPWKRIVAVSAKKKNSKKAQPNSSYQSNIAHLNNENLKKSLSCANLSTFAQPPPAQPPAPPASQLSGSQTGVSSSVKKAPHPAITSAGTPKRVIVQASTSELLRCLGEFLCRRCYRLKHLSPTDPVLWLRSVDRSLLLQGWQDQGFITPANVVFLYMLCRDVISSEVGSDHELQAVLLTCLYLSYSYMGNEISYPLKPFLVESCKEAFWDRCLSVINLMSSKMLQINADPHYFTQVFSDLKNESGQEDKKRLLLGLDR

Turning to `O=C(Cc1ccc2c(c1)OCCO2)Nc1cc(C2CCC2)[nH]n1` [25–107], the IC50 in data set [1] was in the range of 500 to 1000 nM. For the same molecule, the “effect on Cdk5 activity (phospho-Ser549 synapsin I) compared to vehicle” value (“effect on Cdk5 activity … compared to vehicle” below) in data set [2] is “no effect”.

As to `O=C(C/C=C/c1ccccc1)Nc1cc(C2CCC2)[nH]n1` [25–132], the IC50 in data set [1] lay in the range of 500 to 1000 nM. In addition, the “effect on Cdk5 activity … compared to vehicle” value in data set [2] is recorded as “no effect”.

On to `COc1ccc(CC(=O)Nc2cc(C3CCC3)[nH]n2)cc1OC` [25–143], for which the IC50 in data set [1] was in the range of 500 to 1000 nM. In data set [2], the “effect on Cdk5 activity … compared to vehicle” value is “no effect”.

Consider `CC[C@H](CO)Nc1nc(NCc2ccccc2)c2ncn(C(C)C)c2n1` [roscovitine], for which, in data set [3], the “distribution into the brain” value is on record as “could distribute into the brain”; the “half-life and active metabolites” value is listed as “rapid half-life with no detectable active metabolites”.
